Reference: patent US20100041089A1, “IMPROVED METHOD FOR DETECTING CHEMICAL […]” (priority 2006, published 2010)

System: yeast genes (expressed mRNA)
Test: DNA chip measurement of expressed mRNA of yeast genes after culture with a toxic chemical substance
Type: cell-based, Saccharomyces cerevisiae S288C
Method in brief: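 Fluorescence ratio, treated over untreated, read by chip scanner; ratio of two or more counted significant. Cells: S288C yeast, YPD, 25° C, chemical added at log phase for 2 h at growth-inhibiting, sublethal level. Cy3/Cy5-labeled cDNA from oligo-dT-purified mRNA.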

## C=CC=O [(14), Acrolein]
Yeast gene YAL053W, cultured two hours with substance
  The level of expressed mRNA in the presence of chemical substance/The level of expressed mRNA in the absence of chemical substance: 0.7
Yeast gene YAR028W, cultured two hours with substance
  The level of expressed mRNA in the presence of chemical substance/The level of expressed mRNA in the absence of chemical substance: 1.2
Yeast gene YBL048W, cultured two hours with substance
  The level of expressed mRNA in the presence of chemical substance/The level of expressed mRNA in the absence of chemical substance: 2.0
Yeast gene YBL049W, cultured two hours with substance
  The level of expressed mRNA in the presence of chemical substance/The level of expressed mRNA in the absence of chemical substance: 1.5
Yeast gene YBL064C (detoxification protein gene)
  The level of expressed mRNA in the presence of chemical substance/The level of expressed mRNA in the absence of chemical substance: 5.0
Yeast gene YBL107C, cultured two hours with substance
  The level of expressed mRNA in the presence of chemical substance/The level of expressed mRNA in the absence of chemical substance: 2.5
Yeast gene YBR062C, cultured two hours with substance
  The level of expressed mRNA in the presence of chemical substance/The level of expressed mRNA in the absence of chemical substance: 2.6
Yeast gene YBR116C, cultured two hours with substance
  The level of expressed mRNA in the presence of chemical substance/The level of expressed mRNA in the absence of chemical substance: 2.7
Yeast gene YCR013C, cultured two hours with substance
  The level of expressed mRNA in the presence of chemical substance/The level of expressed mRNA in the absence of chemical substance: 1.5
Yeast gene YCR102C, cultured two hours with substance
  The level of expressed mRNA in the presence of chemical substance/The level of expressed mRNA in the absence of chemical substance: 4.1
Yeast gene YDL021W, cultured for two hours with substance
  The level of expressed mRNA in the presence of chemical substance/The level of expressed mRNA in the absence of chemical substance: 3.7
Yeast gene YDL059C, DNA repair protein genes, cultured two hours with substance
  The level of expressed mRNA in the presence of chemical substance/The level of expressed mRNA in the absence of chemical substance: 4.7
Yeast gene YDL072C, cultured two hours with substance
  The level of expressed mRNA in the presence of chemical substance/The level of expressed mRNA in the absence of chemical substance: 1.8
Yeast gene YDL204W, cultured two hours with substance
  The level of expressed mRNA in the presence of chemical substance/The level of expressed mRNA in the absence of chemical substance: 2.4
Yeast gene YDL218W, cultured two hours with substance
  The level of expressed mRNA in the presence of chemical substance/The level of expressed mRNA in the absence of chemical substance: 4.8
Yeast gene YDL222C, cultured two hours with substance
  The level of expressed mRNA in the presence of chemical substance/The level of expressed mRNA in the absence of chemical substance: 1.3
Yeast gene YDR031W, cultured two hours with substance
  The level of expressed mRNA in the presence of chemical substance/The level of expressed mRNA in the absence of chemical substance: 2.5
Yeast gene YDR330W, cultured two hours with substance
  The level of expressed mRNA in the presence of chemical substance/The level of expressed mRNA in the absence of chemical substance: 1.1
Yeast gene YDR391C, cultured two hours with substance
  The level of expressed mRNA in the presence of chemical substance/The level of expressed mRNA in the absence of chemical substance: 2.3
Yeast gene YDR411C, cultured two hours with substance
  The level of expressed mRNA in the presence of chemical substance/The level of expressed mRNA in the absence of chemical substance: 0.8
Yeast gene YDR486C, cultured two hours with substance
  The level of expressed mRNA in the presence of chemical substance/The level of expressed mRNA in the absence of chemical substance: 2.4
Yeast gene YDR511W, cultured two hours with substance
  The level of expressed mRNA in the presence of chemical substance/The level of expressed mRNA in the absence of chemical substance: 2.2
Yeast gene YDR545W, cultured two hours with substance
  The level of expressed mRNA in the presence of chemical substance/The level of expressed mRNA in the absence of chemical substance: 0.7
Yeast gene YEL001C, cultured two hours with substance
  The level of expressed mRNA in the presence of chemical substance/The level of expressed mRNA in the absence of chemical substance: 1.3
Yeast gene YEL057C, cultured two hours with the chemical substance
  The level of expressed mRNA in the presence of chemical substance/The level of expressed mRNA in the absence of chemical substance: 1.5
Yeast gene YER004W, cultured two hours with substance
  The level of expressed mRNA in the presence of chemical substance/The level of expressed mRNA in the absence of chemical substance: 1.8
Yeast gene YER012W
  The level of expressed mRNA in the presence of chemical substance/The level of expressed mRNA in the absence of chemical substance: 4.6
Yeast gene YER035W, cultured two hours with substance
  The level of expressed mRNA in the presence of chemical substance/The level of expressed mRNA in the absence of chemical substance: 1.0
Yeast gene YER038C, cultured two hours with substance
  The level of expressed mRNA in the presence of chemical substance/The level of expressed mRNA in the absence of chemical substance: 1.3
Yeast gene YER079W, cultured two hours with substance
  The level of expressed mRNA in the presence of chemical substance/The level of expressed mRNA in the absence of chemical substance: 1.6
Yeast gene YER106W, cultured two hours with substance
  The level of expressed mRNA in the presence of chemical substance/The level of expressed mRNA in the absence of chemical substance: 1.5
Yeast gene YER158C, cultured two hours with substance
  The level of expressed mRNA in the presence of chemical substance/The level of expressed mRNA in the absence of chemical substance: 0.9
Yeast gene YER163C, cultured two hours with substance
  The level of expressed mRNA in the presence of chemical substance/The level of expressed mRNA in the absence of chemical substance: 1.9
Yeast gene YER175C, cultured two hours with substance
  The level of expressed mRNA in the presence of chemical substance/The level of expressed mRNA in the absence of chemical substance: 1.1
Yeast gene YFL006W, cultured two hours with substance
  The level of expressed mRNA in the presence of chemical substance/The level of expressed mRNA in the absence of chemical substance: 1.7
Yeast gene YFL010C, cultured two hours with substance
  The level of expressed mRNA in the presence of chemical substance/The level of expressed mRNA in the absence of chemical substance: 1.4
Yeast gene YFL014W, DNA repair protein genes, cultured two hours with substance
  The level of expressed mRNA in the presence of chemical substance/The level of expressed mRNA in the absence of chemical substance: 7.3
Yeast gene YFL024C, cultured two hours with substance
  The level of expressed mRNA in the presence of chemical substance/The level of expressed mRNA in the absence of chemical substance: 3.3
Yeast gene YFL032W, cultured two hours with substance
  The level of expressed mRNA in the presence of chemical substance/The level of expressed mRNA in the absence of chemical substance: 0.6
Yeast gene YFR003C, cultured two hours with substance
  The level of expressed mRNA in the presence of chemical substance/The level of expressed mRNA in the absence of chemical substance: 2.1
Yeast gene YGL037C, cultured two hours with substance
  The level of expressed mRNA in the presence of chemical substance/The level of expressed mRNA in the absence of chemical substance: 1.0
Yeast gene YGL047W, cultured two hours with substance
  The level of expressed mRNA in the presence of chemical substance/The level of expressed mRNA in the absence of chemical substance: 2.3
